Measured values taken from PubChem BioAssay (NCI).
Values joined by “and” are separate entries in the source; they are usually repeats but may differ in a detail not shown here. Equal values may be shown once.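 Assay format: 96-well plates, 48-hour exposure. Here, GI50 denotes the concentration required for 50% inhibition of growth. TGI denotes the concentration required for complete inhibition of growth.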

Columns and labels:
Assay in all cases: NCI-60 cell line screen, 48 h
HL-60(TB) leukemia = tested on: HL-60(TB) leukemia
ACHN renal = tested on: ACHN renal
786-0 renal = tested on: 786-0 renal
KM12 colon = tested on: KM12 colon
RXF 393 renal = tested on: RXF 393 renal
COLO 205 colon = tested on: COLO 205 colon
IGROV1 ovarian = tested on: IGROV1 ovarian
CCRF-CEM leukemia = tested on: CCRF-CEM leukemia
SK-OV-3 ovarian = tested on: SK-OV-3 ovarian
HOP-62 NSCLC = tested on: HOP-62 NSCLC

Row | SMILES | GI50 (HL-60(TB) leukemia) [µM] | TGI (HL-60(TB) leukemia) | GI50 (ACHN renal) [µM] | TGI (ACHN renal) [µM] | GI50 (786-0 renal) | TGI (786-0 renal) | GI50 (KM12 colon) [µM] | TGI (KM12 colon) | TGI (RXF 393 renal) | GI50 (COLO 205 colon) [µM] | TGI (COLO 205 colon) | GI50 (IGROV1 ovarian) [µM] | TGI (IGROV1 ovarian) | GI50 (CCRF-CEM leukemia) | TGI (SK-OV-3 ovarian) | GI50 (HOP-62 NSCLC) | TGI (HOP-62 NSCLC) [µM] | GI50 (RXF 393 renal) [µM] | TGI (CCRF-CEM leukemia) | GI50 (SK-OV-3 ovarian) [µM]
1 | C/C(=N\NC(=S)N1CCC1)c1ccccn1 | 0.0045 | 3.57 µM | 0.00656 | 34.6 | 0.0555 µM | > 52.4 µM | 0.0477 | 46.7 µM | 4.39 µM | 0.00486 | > 100 µM | 0.00798 | 22.7 µM | 0.00658 µM | 5.7 µM | 0.0223 µM | > 33.9 |  |  | 
2 | Nc1ncnc2c1c(-c1ccc(Oc3ccccc3)cc1)nn2CC1SSCC1O (stereo not given) | 1.49 | 7.99 µM | 4.27 | 14.9 | 4.86 µM | 11.2 µM | 0.324 | 7.67 µM | 9.62 µM | 1.25 | 5.5 µM | 2.44 | 8.31 µM | 0.138 µM | 7.05 µM | 3.6 µM | 11.1 | 2.74 | 32.5 µM | 1.35
3 | CCc1c(OC(C)=O)c2c(NC3OC(COC(C)=O)C(OC(C)=O)C(OC(C)=O)C3OC(C)=O)nc(SC)nc2oc1=O (stereo not given) |  | > 100 µM |  | > 100 |  | > 100 µM |  | > 100 µM | > 100 µM |  | > 100 µM |  | > 100 µM |  | > 100 µM |  | > 100 |  | > 100 µM | 
4 | Nc1nc(Cl)c2ncn(Cc3ccc(C45CC6CC(CC(C6)C4)C5)c(OCc4cc(F)c(F)cc4F)c3)c2n1 | 1.06 | 2.85 µM | 3.4 | 13.7 | 1.85 µM | 4.93 µM | 2.93 | 9.13 µM | 2.66 µM | 4.22 | 22 µM | 2.77 | 13.8 µM | 1.66 µM | 42.2 µM | 3.23 µM | 10.8 | 0.677 | 4.16 µM | 6.02
5 | CCc1ccc(Oc2c(-c3ccc(OCc4ccc(Cl)cc4)cc3O)nn(C)c2C(F)(F)F)cc1 | 1.42 | 3.62 µM | 0.385 | 1.7 | 1.22 µM | 2.87 µM | 0.389 | 1.61 µM | 2.59 µM | 0.457 | 1.73 µM | 0.654 | 2.7 µM | 0.454 µM | 4.98 µM | 1.34 µM | 2.83 | 1.14 | 4.82 µM | 1.63
6 | O=C1OC(=O)c2c1nc1ccccc1c2-c1ccccc1 |  | > 100 µM |  | > 100 |  | > 100 µM |  | > 100 µM | > 100 µM |  | > 100 µM |  | > 100 µM |  | > 100 µM |  | > 100 |  | > 100 µM | 
7 | [O-][n+]1c2cccc(O)c2[n+]([O-])c2cccc(O)c21 |  | > 100 µM |  | 51.8 |  | > 100 µM |  | > 100 µM | > 100 µM |  | > 100 µM |  | 69 µM |  | > 100 µM |  | > 100 |  | 56 µM | 
8 | COc1cc([C@@H]2c3cc4c(cc3[C@H](SC(=N)N)[C@H]3COC(=O)[C@H]23)OCO4)cc(OC)c1OC | 0.25 | > 100 µM | 0.41 | > 84.2 | 0.435 µM | > 100 µM | 0.0944 | 0.409 µM | 35.6 µM | 0.198 | 0.422 µM | 0.227 | 4.66 µM | 0.299 µM | > 33 µM | 0.419 µM | > 100 | 2.3 | > 100 µM | 0.201
9 | CC[n+]1c(-c2ccccc2)c2cc(N)ccc2c2ccc(N)cc21 |  | 18 µM and 26.9 µM and 47.6 µM | 14.1 | > 100 | 1.37 µM and 1.16 µM and 3.57 µM | 13.6 µM and 12.7 µM and 26.1 µM | 1.02 | 4.68 µM and 15 µM and 21.9 µM | 3.51 µM and 17.1 µM | 0.612 | 2.24 µM and 7.14 µM | 0.522 | 10.2 µM and 12.9 µM | 2.15 µM and 1.2 µM and 4.94 µM | 23.5 µM and 25.6 µM | 0.863 µM and 7.4 µM and 2.38 µM |  | 1.07 | 77 µM and 33 µM and 48.3 µM | 2.19
10 | O=c1[nH]c(=S)[nH]c(O)c1/C=C1\C=Nc2ccccc21 | 2.65 | 8.88 µM | 11.4 | 24.3 | 6.47 µM | 22.2 µM | 1.64 | 3.34 µM | 14.6 µM | 3.77 | 18.3 µM | 1.02 | 5.55 µM | 2.12 µM | 81.5 µM | 3.66 µM | 38.4 | 3.71 | 6.47 µM | 15.7
11 | CC1CCCP(=O)(c2ccccc2)CCC1 (stereo not given) |  | > 100 µM |  | > 100 |  | > 100 µM |  | > 100 µM | > 100 µM |  | > 100 µM |  | > 100 µM |  | > 100 µM |  | > 100 |  | > 100 µM | 
12 | O=[N+]([O-])c1cccnc1S(=O)(=O)c1ccccc1 |  | 7.01 µM |  | 11.4 |  | 7.09 µM |  | 36.3 µM | 3.77 µM |  | 11 µM |  | 20.3 µM |  | 44.7 µM |  | 32.8 |  | > 100 µM | 
13 | O=C1Nc2ccc(-c3cccnc3)cc2/C1=C/c1cc(Br)c(O)c(Br)c1 | 6.97 | > 22.1 µM | 8.15 | > 25 | 7.18 µM | > 25 µM | 6.59 | 24.8 µM | > 19.9 µM | 11.8 | > 25 µM | 7.09 | > 25 µM | 5.43 µM | 24.9 µM | 8.43 µM | > 25 | 6.08 | > 25 µM | 8.11
14 | CN(C)CCNC(=O)Nc1ccc(N(C)c2ccnc(Nc3ccc(CS(C)(=O)=O)cc3)n2)cc1 | > 25 | > 25 µM | > 25 | > 25 | > 25 µM | > 25 µM | 9.88 | > 25 µM | > 25 µM | > 25 | > 25 µM | > 25 | > 25 µM | 16.5 µM | > 25 µM | > 25 µM | > 25 | > 25 | > 25 µM | > 25
15 | COc1ccc(N(CC(=O)O)N=O)cc1 |  | > 100 µM |  | > 100 |  | > 100 µM |  | > 100 µM | > 100 µM |  | > 100 µM |  | > 100 µM |  | > 100 µM |  | > 100 |  | > 100 µM | 
